Measured values reported in patent US9540389B2, “Antimicrobial potentiators” (priority 2013, dated 2017).

Columns and labels:
Escherichia coli AB1157 = assay: MIC assay (microbroth dilution) ± 25 μM EPI; assay type: cell-based; settings: for MICs (μg/ml) ± EPIs: MBX2319 / MICs (μg/ml) ± EPIs: PAβN / MICs (μg/ml) ± EPIs: None: E. coli AB1157 (WT), geometric mean; for MICs (μg/ml) ± EPIs: MBX2319: + 25 μM MBX2319; for MICs (μg/ml) ± EPIs: PAβN: + 25 μM PAβN; for MIC Ratio MBX2319 / MIC Ratio PAβN: E. coli AB1157; for MIC Ratio MBX2319: MIC no cmpd/MIC + 25 μM MBX2319; for MIC Ratio PAβN: MIC no cmpd/MIC + 25 μM PAβN; for MIC: Escherichia coli, AB1157, read-out: MICs (μg/ml) ± EPIs: None; for MICs (μg/ml) ± EPIs: None: no EPI
Source text: (§1) • Strains and Reagents. The following strains were obtained from the Keio collection (Baba, et al.: Construction of Escherichia coli K-12 in-frame, single-gene knockout mutants: the Keio collection. In Mol Syst Biol, vol. 2, pp. 2006 0008, (2006)): JW0451 (ΔacrB::kan), JW5503 (ΔtolC::kan), JW3234 (ΔacrF::kan), JW2661 (ΔemrB::kan), JW0863 (ΔmacB::kan). The deletion mutations in each of these strains were transferred to AB1157 using P1 phage transduction (see Table 1). The construction of the E. coli cell-based reporter strain (SOS-XXX) that was used for high throughput screening is described in detail in the supplementary information. […] Irgasan was a generous gift from Ciba Speciality Chemicals, Inc. (High Point, N.C.). Hoechst 33342 (H33342) was purchased from Molecular Probes (Eugene, Oreg.). […] Luria Broth (Miller) and agar were purchased as prepared dehydrated media from Becton Dickenson (Franklin Lakes, N.J.). The compound libraries used in high-throughput screens were purchased from Chembridge (San Diego, Calif.), ChemDiv (San Diego, Calif.), and TimTec (Newark, Del.). MBX2319 was synthesized by Microbiotix, Inc. • Antibacterial Activity Assays. The minimal inhibitory concentration (MIC) of antibacterial agents and biocides were determined using the microbroth dilution method essentially as described in the CLSI protocol M7-A7 (CLSI: Method for dilution antimicrobial susceptibility testing for bacteria that grow aerobically; Approved standard-document M7-A7. In Clinical and Laboratory Standards Institute document M7-A7, Clinical and Laboratory Standards Institute, Wayne, Pa., (2006)), with the following exceptions. LB media was used instead of MHB. […] The final concentration of DMSO in each assay was 2%. […] MIC assays were performed in triplicate and the geometric mean was calculated. Checkerboard MIC assays using an EPI and an antibacterial agent were performed essentially as described (Pillai, et al.: Antimicrobial Combinations. In Antibiotics in Laboratory Medicine, ed. by V. Lorian, pp. 365-440, Lippincott Williams & Wilkins, Philadelphia, Pa., (2005)), with the same modifications used for the MIC assays described above. • Time-Kill Assays. Killing curve assays were performed essentially as described (Pillai, et al.: Antimicrobial Combinations. In Antibiotics in Laboratory Medicine, ed. by V. Lorian, pp. 365-440, Lippincott Williams & Wilkins, Philadelphia, Pa., (2005)). Exponential bacterial cultures grown in LB were diluted to a cell density of ˜1×10^7 in LB followed by addition of CIP and/or an EPI. Viability was monitored over 2-4 hours by making serial dilutions in saline and spotting 5 μl of each dilution onto the surface of an LB agar plate in triplicate. Colonies were counted after the plates were incubated at 37° C. for 16-18 hr, colony forming units (CFU) per ml were calculated, and the average and standard deviation for the three replicates was determined. For treatments that decreased CFU/ml below the limit of detection for the spot plating method, the 100 μl samples were diluted into 5 ml LB top agar, were poured onto LB agar plates, and incubated for 18 hr at 37° C. To calculate the fraction of the control for each sample, the average CFU/ml values for treated samples were divided by those from the same sample at 0 h (time=0). Each experiment was repeated at least three times, and a representative experiment is shown. • H33342 Accumulation Assay. The rate of accumulation of the fluorescent dye Hoechst 33342 (H33342), which is a substrate of a wide variety of bacterial efflux pumps (van den Berg van Saparoea, et al., Biochemistry, vol. 44, pp. 16931-16938, (2005)), can be used to estimate the activity of the major efflux pumps in E. coli and many other bacterial species. The H33342 accumulation assay was used to evaluate the effect of EPIs on the activity of the AcrAB-TolC efflux pump in several bacterial species essentially as described (Coldham, et al., J Antimicrob Chemother, vol. 65, pp. 1655-1663, (2010)). […]

[1] = tested on: Escherichia coli AB1157 ΔacrB; assay: MIC assay (microbroth dilution); assay type: cell-based; settings: for MIC: Escherichia coli, read-out: MICs (μg/ml) ΔacrB None; for MIC Ratio ΔacrB: MIC WT/MIC ΔacrB; for MICs (μg/ml) ΔacrB None: ΔacrB strain, no EPI, geometric mean
Source text: as §1

P. aeruginosa ATCC 27853 = assay: MIC assay (microbroth dilution) ± 25 μM EPI; assay type: cell-based, Pseudomonas aeruginosa
Source text: as §1

[2] = tested on: Klebsiella pneumoniae ATCC 700603; assay: MIC assay (microbroth dilution) ± 25 μM EPI; assay type: cell-based
Source text: as §1

[3] = tested on: Salmonella enterica ATCC 14028; assay: MIC assay (microbroth dilution) ± 25 μM EPI; assay type: cell-based
Source text: as §1

[4] = tested on: Escherichia coli ATCC 25922; assay: MIC assay (microbroth dilution) ± 25 μM EPI; assay type: cell-based; settings: E. coli ATCC 25922
Source text: as §1

[5] = tested on: Shigella flexneri ATCC 12022; assay: MIC assay (microbroth dilution) ± 25 μM EPI; assay type: cell-based
Source text: as §1

Escherichia coli 331 = assay: MIC assay (microbroth dilution) ± 25 μM EPI; assay type: cell-based; settings: E. coli 331
Source text: as §1

[6] = tested on: Enterobacter aerogenes ATCC 13048; assay: MIC assay (microbroth dilution) ± 25 μM EPI; assay type: cell-based
Source text: as §1

Molecule | MICs (μg/ml) ± EPIs: MBX2319 (Escherichia coli AB1157) [µg/mL] | MICs (μg/ml) ± EPIs: PAβN (Escherichia coli AB1157) [µg/mL] | MIC Ratio MBX2319 (Escherichia coli AB1157) | MIC Ratio PAβN (Escherichia coli AB1157) | MIC (Escherichia coli AB1157) [µg/mL] | MIC [1] [µg/mL] | MIC Ratio ΔacrB [1] | also measured
CC1=C(C(=O)O)N2C(=O)[C@@H](NC(=O)[C@H](N)c3ccccc3)[C@H]2SC1 [Cephalexin] | 16 | 16 | 2 | 2 | 32 | 32 | 1 | 
CCn1cc(C(=O)O)c(=O)c2ccc(C)nc21 [Nalidixic acid] | 8 | 1 | 2 | 16 | 16 | 8 | 2 | 
Cc1onc(-c2ccccc2)c1C(=O)N[C@@H]1C(=O)N2[C@@H]1SC(C)(C)[C@@H]2C(=O)O [Oxacillin] | 64 |  |  |  | 512 | 4 |  | 
CC1(C)S[C@@H]2[C@H](NC(=O)[C@H](N)c3ccc(O)cc3)C(=O)N2[C@H]1C(=O)O [Amoxacillin] | 4 | 4 | 1 | 1 |  |  | 0.5 | MICs (μg/ml) ± EPIs: None (Escherichia coli AB1157): 4 µg/mL; MICs (μg/ml) ΔacrB None [1]: 8 µg/mL
O=C(N[C@H](CO)[C@H](O)c1ccc([N+](=O)[O-])cc1)C(Cl)Cl [Cloramphenicol] | 2 | 2 | 4 | 4 |  |  | 4 | MICs (μg/ml) ± EPIs: None (Escherichia coli AB1157): 8 µg/mL; MICs (μg/ml) ΔacrB None [1]: 2 µg/mL
Cc1onc(-c2ccccc2Cl)c1C(=O)N[C@@H]1C(=O)N2[C@@H]1SC(C)(C)[C@@H]2C(=O)O [Cloxacillin] | 128 | 64 | 2 | 4 | 256 | 4 | 64 | 
CCn1cc(C(=O)O)c(=O)c2cc(F)c(N3CCNCC3)cc21 [Norfloxacin] | 0.063 | 0.063 | 1 | 1 | 0.063 | 0.016 | 4 | 
CC[n+]1c(-c2ccccc2)c2cc(N)ccc2c2ccc(N)cc21 [Ethidium Br, Ethidium Bromide] | 256 | 16 | 1 | 16 | 256 | 8 | 32 | 
Oc1cc(Cl)ccc1Oc1ccc(Cl)cc1Cl [Irgasan] | 0.125 | 0.031 | 2 | 8 |  |  | 8 | MICs (μg/ml) ± EPIs: None (Escherichia coli AB1157): 0.25 µg/mL; MICs (μg/ml) ΔacrB None [1]: 0.031 µg/mL
O=C(O)c1cn(C2CC2)c2cc(N3CCNCC3)c(F)cc2c1=O [Ciprofloxacin] |  | 0.031 |  |  |  |  |  | MIC (μg/ml) ± EPI: PAβN (P. aeruginosa ATCC 27853; + 25 μM PAβN): 0.149 µg/mL; MIC (P. aeruginosa ATCC 27853; Pseudomonas aeruginosa, ATCC27853, no EPI, read-out: MIC (μg/ml) ± EPI: None): 0.21 µg/mL; MIC (μg/ml) ± EPI: MBX2319 ([2]; + 25 μM MBX2319): 0.088 µg/mL; MIC (μg/ml) ± EPI: PAβN ([2]; + 25 μM PAβN): 0.25 µg/mL; MIC ([2]; ATCC700603, no EPI, read-out: MIC (μg/ml) ± EPI: None): 0.29 µg/mL; MIC (μg/ml) ± EPI: MBX2319 ([3]; + 25 μM MBX2319): 0.008 µg/mL; MIC (μg/ml) ± EPI: PAβN ([3]; + 25 μM PAβN): 0.044 µg/mL; MIC ([3]; ATCC14028, no EPI, read-out: MIC (μg/ml) ± EPI: None): 0.031 µg/mL; MIC (μg/ml) ± EPI: MBX2319 ([4]; + 25 μM MBX2319): 0.005 µg/mL; MIC (μg/ml) ± EPI: PAβN ([4]; + 25 μM PAβN): 0.022 µg/mL; MIC (μg/ml) ± EPI: PAβN ([5]; Shigella flexneri ATCC 12022, + 25 μM PAβN): 0.031 µg/mL; MIC ([5]; Shigella flexneri, ATCC12022, read-out: MIC (μg/ml) ± EPI: None): 0.031 µg/mL; MIC (μg/ml) ± EPI: MBX2319 (Escherichia coli 331; + 25 μM MBX2319): 32 µg/mL; MIC (μg/ml) ± EPI: PAβN (Escherichia coli 331; + 25 μM PAβN): 128 µg/mL; MIC (Escherichia coli 331; Escherichia coli, no EPI, read-out: MIC (μg/ml) ± EPI: None): 128 µg/mL; MIC (μg/ml) ± EPI: MBX2319 ([6]; + 25 μM MBX2319): 0.008 µg/mL; MIC (μg/ml) ± EPI: PAβN ([6]; + 25 μM PAβN): 0.031 µg/mL; MIC ([6]; Klebsiella aerogenes, ATCC13048, no EPI, read-out: MIC (μg/ml) ± EPI: None): 0.037 µg/mL
CN(C)c1ccc(C(=C2C=CC(=[N+](C)C)C=C2)c2ccc(N(C)C)cc2)cc1 [Crystal violet] | 8 | 1 | 2 | 16 | 16 | 1 | 16 | 
CO[C@H]1/C=C/O[C@@]2(C)Oc3c(C)c(O)c4c(O)c(c(/C=N/N5CCN(C)CC5)c(O)c4c3C2=O)NC(=O)/C(C)=C\C=C\[C@H](C)[C@H](O)[C@@H](C)[C@@H](O)[C@@H](C)[C@H](OC(C)=O)[C@@H]1C [Rifampicin] | 8 |  |  |  | 8 | 8 |  | 
CN(C)[C@@H]1C(O)=C(C(N)=O)C(=O)[C@@]2(O)C(O)=C3C(=O)c4c(O)cccc4[C@@](C)(O)[C@H]3C[C@@H]12 [Tetracycline] |  |  |  |  |  | 0.5 |  | 
Gentamicin | 8 | 8 | 0.5 | 0.5 |  |  | 1 | MICs (μg/ml) ± EPIs: None (Escherichia coli AB1157): 4 µg/mL; MICs (μg/ml) ΔacrB None [1]: 4 µg/mL
